Measured values taken from PubChem BioAssay (NCI).
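Values below derive from 48-hour exposures of cells grown in 96-well plates, with endpoints linearly interpolated between the two concentrations bracketing the appropriate inhibition level. Abbreviation: GI50, concentration required for 50% inhibition of growth. TGI denotes the concentration required for complete inhibition of growth.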

How the values were obtained:
Experiment in all cases: NCI anticancer screen, dose series, 48 h
[1] = system: CCRF-CEM leukemia
[2] = system: OVCAR-8 ovarian
[3] = system: HS 578T breast
[4] = system: BT-549 breast
[5] = system: MDA-MB-435
[6] = system: HL-60(TB) leukemia
[7] = system: U251 CNS
[8] = system: SK-OV-3 ovarian
[9] = system: HOP-62 NSCLC
[10] = system: A498 renal
[11] = system: IGROV1 ovarian
[12] = system: MALME-3M melanoma
[13] = system: RXF 393 renal
[14] = system: UACC-257 melanoma
[15] = system: HCT-116 colon
[16] = system: SW-620 colon
[17] = system: RPMI-8226 leukemia
[18] = system: SF-539 CNS
[19] = system: NCI-H460 lung
[20] = system: A549 NSCLC
[21] = system: OVCAR-5 ovarian
[22] = system: NCI-H522 lung
[23] = system: PC-3 prostate
[24] = system: COLO 205 colon
[25] = system: MOLT-4 leukemia
[26] = system: EKVX NSCLC
[27] = system: MCF7 breast
[28] = system: HCT-15 colon
[29] = system: SF-295 CNS
[30] = system: HOP-92 NSCLC
[31] = system: OVCAR-3 ovarian
[32] = system: SN12C renal
[33] = system: K-562 leukemia
[34] = system: SK-MEL-5 melanoma
[35] = system: KM12 colon
[36] = system: OVCAR-4 ovarian
[37] = system: NCI-H23 lung
[38] = system: DU-145 prostate
[39] = system: SNB-19 CNS
[40] = system: NCI-H226 lung
[41] = system: 786-0 renal
[42] = system: SK-MEL-28 melanoma
[43] = system: HCC-2998 colon
[44] = system: T-47D breast
[45] = system: MDA-MB-231 breast
[46] = system: NCI/ADR-RES ovarian
[47] = system: SK-MEL-2 melanoma
[48] = system: UACC-62 melanoma
[49] = system: SF-268 CNS
[50] = system: M14 melanoma
[51] = system: TK-10 renal
[52] = system: UO-31 renal
[53] = system: LOX IMVI melanoma
[54] = system: SNB-75 CNS
[55] = system: ACHN renal
[56] = system: HT29 colon
[57] = system: CAKI-1 renal
[58] = system: SR leukemia

COc1ccc(C2NN=C3c4ccccc4CCC32)cc1 (stereo not given)
GI50 [1]: 4.64 µM
TGI [1]: > 100 µM
GI50 [2]: 22.1 µM
TGI [2]: > 100 µM
GI50 [3]: 15 µM
TGI [3]: > 100 µM
GI50 [4]: 5.29 µM
TGI [4]: 95.4 µM
GI50 [5]: 1.57 µM
TGI [5]: 3.62 µM
GI50 [6]: 1.92 µM
TGI [6]: 5.27 µM
GI50 [7]: 5.92 µM
TGI [7]: > 100 µM
GI50 [8]: 20.4 µM
TGI [8]: > 100 µM
GI50 [9]: 95.3 µM
TGI [9]: > 100 µM
GI50 [10]: 19.4 µM
TGI [10]: 65 µM
GI50 [11]: 2.7 µM
TGI [11]: 21.4 µM
GI50 [12]: 5.22 µM
TGI [12]: 38.4 µM
GI50 [13]: 23.1 µM
TGI [13]: > 100 µM
GI50 [14]: 19.4 µM
TGI [14]: 79.4 µM
GI50 [15]: 6.85 µM
TGI [15]: 30.2 µM
GI50 [16]: 9.19 µM
TGI [16]: > 100 µM
GI50 [17]: 5.36 µM
TGI [17]: 85.4 µM
GI50 [18]: 6.73 µM
TGI [18]: 28.8 µM
GI50 [19]: 4.86 µM
TGI [19]: 71.3 µM
GI50 [20]: 19.7 µM
TGI [20]: 76.6 µM
GI50 [21]: 18.4 µM
TGI [21]: > 100 µM
GI50 [22]: 3.21 µM
TGI [22]: 17.7 µM
GI50 [23]: 15.8 µM
TGI [23]: > 100 µM
GI50 [24]: 7.8 µM
TGI [24]: 22.5 µM
GI50 [25]: 4.04 µM
TGI [25]: > 100 µM
GI50 [26]: 1.4 µM
TGI [26]: 29.3 µM
GI50 [27]: 2.56 µM
TGI [27]: 11.5 µM
GI50 [28]: 3.7 µM
TGI [28]: > 100 µM
GI50 [29]: 2.48 µM
TGI [29]: 13.2 µM
GI50 [30]: 19.4 µM
TGI [30]: > 100 µM
GI50 [31]: 3.38 µM
TGI [31]: 14.9 µM
GI50 [32]: 15.4 µM
TGI [32]: 79.5 µM
GI50 [33]: 2.87 µM
TGI [33]: > 100 µM
GI50 [34]: 3.62 µM
TGI [34]: 17.1 µM
GI50 [35]: 3.99 µM
TGI [35]: > 100 µM
GI50 [36]: 3.31 µM
TGI [36]: 24.6 µM
GI50 [37]: 12.6 µM
TGI [37]: 93.3 µM
GI50 [38]: 19.2 µM
TGI [38]: 72.6 µM
GI50 [39]: 14.5 µM
TGI [39]: > 100 µM
GI50 [40]: > 100 µM
TGI [40]: > 100 µM
GI50 [41]: 53.1 µM
TGI [41]: > 100 µM
GI50 [42]: 8.26 µM
TGI [42]: 76.1 µM
GI50 [43]: 12.4 µM
TGI [43]: > 100 µM
GI50 [44]: 6.12 µM
TGI [44]: 47.3 µM
GI50 [45]: 17.8 µM
TGI [45]: > 100 µM
GI50 [46]: 3.99 µM
TGI [46]: 38.3 µM
GI50 [47]: 28.5 µM
TGI [47]: > 100 µM
GI50 [48]: 8.34 µM
TGI [48]: > 100 µM
GI50 [49]: 15.7 µM
TGI [49]: > 100 µM
GI50 [50]: 6.23 µM
TGI [50]: > 100 µM
GI50 [51]: 16.9 µM
TGI [51]: 71.8 µM
GI50 [52]: 24.1 µM
TGI [52]: > 100 µM
GI50 [53]: 8.25 µM
TGI [53]: 33.5 µM
GI50 [54]: 0.284 µM
TGI [54]: 5.58 µM
GI50 [55]: 24.5 µM
TGI [55]: > 100 µM
GI50 [56]: 2.26 µM
TGI [56]: 12.5 µM
GI50 [57]: 9.38 µM
TGI [57]: 21.4 µM

NC1=NC(SCc2ccccc2CCl)c2ncn(Cc3ccccc3CCl)c2N1 (stereo not given)
GI50 [1]: 1.79 µM
TGI [1]: 5.68 µM
GI50 [2]: 2.01 µM
TGI [2]: 5.09 µM
GI50 [3]: 3.51 µM
TGI [3]: > 100 µM
GI50 [4]: 1.7 µM
TGI [4]: 3.35 µM
GI50 [5]: 1.53 µM
TGI [5]: 3.28 µM
GI50 [7]: 1.45 µM
TGI [7]: 2.82 µM
GI50 [8]: 3.87 µM
TGI [8]: 13.9 µM
GI50 [9]: 1.53 µM
TGI [9]: 3.16 µM
GI50 [10]: 8.51 µM
TGI [10]: 25.3 µM
GI50 [11]: 1.52 µM
TGI [11]: 3.57 µM
GI50 [12]: 1.44 µM
TGI [12]: 3.2 µM
GI50 [13]: 1.48 µM
TGI [13]: 2.85 µM
GI50 [14]: 1.54 µM
TGI [14]: 3.07 µM
GI50 [15]: 1.47 µM
TGI [15]: 3.06 µM
GI50 [16]: 1.54 µM
TGI [16]: 3.57 µM
GI50 [18]: 2.92 µM
TGI [18]: 10.4 µM
GI50 [19]: 2.53 µM
TGI [19]: 6.69 µM
GI50 [20]: 2.04 µM
TGI [20]: 5.01 µM
GI50 [21]: 2.7 µM
TGI [21]: 9.88 µM
GI50 [23]: 1.79 µM
TGI [23]: 3.52 µM
GI50 [24]: 1.64 µM
TGI [24]: 3.49 µM
GI50 [25]: 2.04 µM
TGI [25]: 6.03 µM
GI50 [26]: 3.14 µM
TGI [26]: 11.6 µM
GI50 [27]: 2.17 µM
TGI [27]: 19.9 µM
GI50 [28]: 2.9 µM
TGI [28]: 12.3 µM
GI50 [29]: 1.98 µM
TGI [29]: 5 µM
GI50 [30]: 1.1 µM
TGI [30]: 2.39 µM
GI50 [31]: 1.32 µM
TGI [31]: 2.99 µM
GI50 [32]: 2.76 µM
TGI [32]: 9.85 µM
GI50 [33]: 2.35 µM
TGI [33]: 10.2 µM
GI50 [34]: 1.71 µM
TGI [34]: 3.25 µM
GI50 [35]: 1.74 µM
TGI [35]: 3.6 µM
GI50 [36]: 2.83 µM
TGI [36]: 10.2 µM
GI50 [37]: 1.61 µM
TGI [37]: 3.45 µM
GI50 [38]: 1.35 µM
TGI [38]: 2.7 µM
GI50 [39]: 4.83 µM
TGI [39]: 23.2 µM
GI50 [40]: 1.9 µM
TGI [40]: 4.7 µM
GI50 [41]: 1.85 µM
TGI [41]: 3.97 µM
GI50 [42]: 2.28 µM
TGI [42]: 6.97 µM
GI50 [44]: 1.54 µM
TGI [44]: 3.34 µM
GI50 [45]: 2.9 µM
TGI [45]: 11.4 µM
GI50 [46]: 1.81 µM
TGI [46]: 4.3 µM
GI50 [47]: 2.06 µM
TGI [47]: 4.89 µM
GI50 [48]: 2.54 µM
TGI [48]: 10.4 µM
GI50 [49]: 2.01 µM
TGI [49]: 10.2 µM
GI50 [51]: 3.29 µM
TGI [51]: 11.9 µM
GI50 [52]: 1.51 µM
TGI [52]: 3.08 µM
GI50 [58]: 1.56 µM
TGI [58]: 6.46 µM
GI50 [53]: 1.35 µM
TGI [53]: 2.92 µM
GI50 [54]: 2.06 µM
TGI [54]: 5.47 µM
GI50 [55]: 2.07 µM
TGI [55]: 5.45 µM
GI50 [56]: 1.88 µM
TGI [56]: 4.01 µM
GI50 [57]: 1.77 µM
TGI [57]: 3.82 µM
